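48-hour exposure; five concentrations; linearly interpolated endpoints. TGI is the concentration that stops growth completely.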
What was measured:
Assay in all cases: NCI anticancer screen, dose series, 48 h
[1] = tested on: MDA-N
[2] = tested on: NCI-H23 lung
[3] = tested on: HCT-116 colon
[4] = tested on: CAKI-1 renal
[5] = tested on: HS 578T breast
[6] = tested on: MALME-3M melanoma
[7] = tested on: MCF7 breast
[8] = tested on: SK-MEL-2 melanoma
[9] = tested on: TK-10 renal
[10] = tested on: U251 CNS
[11] = tested on: UACC-62 melanoma
[12] = tested on: T-47D breast

| SMILES | TGI [1] [µM] | TGI [2] [µM] | TGI [3] [µM] | TGI [4] [µM] | TGI [5] [µM] | TGI [6] [µM] | TGI [7] [µM] | TGI [8] [µM] | TGI [9] [µM] | TGI [10] [µM] | TGI [11] [µM] | TGI [12] [µM] |
| --- | --- | --- | --- | --- | --- | --- | --- | --- | --- | --- | --- | --- |
| CC(C)=CCC/C(C)=C/Cc1cc(/C=C/c2cc(O)c(CC=C(C)C)c(O)c2)cc(O)c1O | 12.1 | 11.2 | 11.9 | 16.9 | 26.8 | 18.6 | 13.4 | 9.4 | 14.2 | 5 | 9.88 | 4.54 |
| CC1CN=C(NCc2ccccc2)S1 (stereo not given) | > 100 | > 100 | > 100 | – | > 100 | > 100 | > 100 | > 100 | > 100 | > 100 | > 100 | > 100 |
| CSc1nc(=S)[nH]c2n[nH]c(C)c12 | > 100 | > 100 | > 100 | > 100 | > 100 | > 100 | > 100 | > 100 | > 100 | > 100 | > 100 | > 100 |
| CCC(=O)N(c1ccccc1)C(C)CN1CCC(O)(c2ccccc2)CC1 (stereo not given) | > 100 | > 100 | > 100 | > 100 | > 100 | > 100 | > 100 | > 100 | > 100 | > 100 | > 100 | > 100 |
| CCOC(=O)CCc1c(C(=O)OCC)[nH]c(/C=C2/NC(=O)C(C)=C2CC)c1C | 26.6 | 11.7 | 28.1 | 80.2 | 95.3 | 33.3 | 17.7 | 40.9 | 88.2 | 24.1 | 19.7 | 9.59 |
| O=c1cc(-c2ccc(O)c(O)c2)oc2cc(OC3OC(CO)C(O)C(O)C3O)cc(O)c12 (stereo not given) | > 100 | > 100 | > 100 | > 100 | > 100 | > 100 | > 100 | > 100 | > 100 | > 100 | > 100 | > 100 |
| Cc1sc2ncnc(NCCc3ccccc3)c2c1C | 23.8 | 36 | 24.9 | 56.7 | 63.6 | 52.3 | 28.6 | 31.2 | 46.5 | 26.7 | 24.6 | 56.6 |
| COC(=O)n1c(=O)nc2c3c(ncn21)Oc1c(c(-c2ccccc2)nn1-c1ccccc1)C3c1ccc(Cl)cc1 (stereo not given) | 3.01 | 3.96 | 2.17 | 2.98 | 2.62 | 2.21 | 3.06 | 3.07 | 3.37 | 3.08 | 3.6 | 3.23 |
| CN(C)c1ccc(C(C#N)N2CCCN(C(C#N)c3ccc(N(C)C)cc3)C2c2ccc(N(C)C)cc2)cc1 (stereo not given) | > 100 | > 100 | > 100 | > 100 | > 100 | > 100 | > 100 | > 100 | > 100 | > 100 | > 100 | > 100 |
| O=C(CNC(=O)OCc1ccccc1)NCCCCC(NC(=O)OCc1ccccc1)C(=O)O (stereo not given) | > 100 | > 100 | > 100 | > 100 | > 100 | > 100 | > 100 | > 100 | > 100 | > 100 | > 100 | > 100 |
| CC(=O)c1c2c(cc3c1CC1(Cc4cc5c(cc4C1)CCC5)C3)CCC2 | > 100 | > 100 | > 100 | > 100 | > 100 | > 100 | > 100 | > 100 | > 100 | > 100 | – | > 100 |
| CC(C#N)Nc1ccc(Oc2ccc(C(C)(C)c3ccc(Oc4ccc(NC(C)C#N)cc4)cc3)cc2)cc1 (stereo not given) | > 100 | > 100 | > 100 | > 100 | 94 | > 100 | > 100 | > 100 | > 100 | > 100 | > 100 | > 100 |
| CCOc1ccc(C2c3[nH]c4ccccc4c3CCN2C(=O)c2cccs2)cc1 (stereo not given) | > 100 | > 100 | > 100 | > 100 | > 100 | > 100 | > 100 | > 100 | > 100 | > 100 | > 100 | > 100 |
| CN1CC=C(OP(=O)(NCc2ccccc2)N(CCCl)CCCl)CC1 (stereo not given) | > 100 | > 100 | > 100 | > 100 | > 100 | > 100 | > 100 | > 100 | > 100 | > 100 | > 100 | > 100 |
| O=C(/C=C/c1ccc(O)c(O)c1)NC(CO)C(=O)O (stereo not given) | > 100 | > 100 | > 100 | > 100 | > 100 | > 100 | > 100 | > 100 | > 100 | > 100 | > 100 | > 100 |
| Cc1c(-c2ccccc2)c(-c2ccc(OCCN(C)C)cc2)n2ccccc12 | 14.3 | 32 | 19 | 23.9 | 20.9 | 17.3 | 23.7 | 21.2 | 27.3 | 24.7 | 3.66 | 22.9 |
| Cc1ccc2c(c1)C(C1Cc3c(C)cccc3C1=O)OC2=O (stereo not given) | > 100 | > 100 | > 100 | > 100 | > 100 | > 100 | > 100 | > 100 | > 100 | > 100 | > 100 | > 100 |
| CCOP(=O)(CS(C)=O)O[C@@H]1C[C@H](C)CC[C@H]1C(C)C (stereo not given in full) | 8.97 | 17.6 | > 23.9 | 12.8 | 11.3 | 26.8 | 11.1 | 12.8 | 16.3 | 16.1 | 7.08 | > 29.7 |

| SMILES | TGI [1] [µM] | TGI [2] [µM] | TGI [3] [µM] | TGI [4] [µM] | TGI [5] [µM] | TGI [6] [µM] | TGI [7] [µM] | TGI [8] [µM] | TGI [9] [µM] | TGI [10] [µM] | TGI [11] [µM] | TGI [12] [µM] |
| --- | --- | --- | --- | --- | --- | --- | --- | --- | --- | --- | --- | --- |
| CCCCCCN(C(=O)Oc1ccccc1)C(C#N)c1ccccc1 (stereo not given) | > 100 | > 100 | > 100 | > 100 | > 100 | > 100 | > 100 | > 100 | > 100 | > 100 | > 100 | > 100 |
| O=C1C(NCCc2cc(Br)c(O)c(Br)c2)=CC(=O)c2ncccc21 | 3.34 | 2.98 | 12.4 | 25 | 9.2 | 2.84 | 17.4 | 29.9 | 73 | 33 | 3.51 | 52 |
| CC(=O)NNC=N/C(C#N)=C(\N)C#N | > 100 | > 100 | > 100 | > 100 | > 100 | > 100 | > 100 | > 100 | > 100 | > 100 | > 100 | > 100 |
| COc1ccccc1NC(=O)C(C#N)=C(SC)SC | > 100 | > 100 | > 100 | > 100 | > 100 | > 100 | > 100 | > 100 | > 100 | > 100 | > 100 | > 100 |
| CC(=O)Nc1c(C)cc(OCC(=O)O)cc1C | > 100 | > 100 | > 100 | > 100 | > 100 | > 100 | > 100 | > 100 | > 100 | > 100 | > 100 | > 100 |
| Fc1ccc(C(OCCN2CCC3CCC(C2)N3CCCc2ccccc2)c2ccc(F)cc2)cc1 (stereo not given) | 11.3 | 15 | 10.6 | 18.3 | 19.7 | 5.46 | 13 | 14 | 15.7 | 15.1 | 18.2 | 4.79 |
| CC[C@@]1(O)C(=O)OCc2c1c(Cl)c1n(c2=O)Cc2cc3ccccc3nc2-1 | > 100 | 6.24 | 8.76 | 16.4 | > 100 | 42.1 | > 34.7 | 52.7 | > 79.5 | 11.5 | 3.38 | > 23 |
| COc1ccc(/C=C/C(=O)NCC(NC(=O)/C=C/c2ccc(OC)c(OC)c2)C(=O)O)cc1OC (stereo not given) | > 100 | > 100 | > 100 | > 100 | > 100 | > 100 | > 100 | > 100 | > 100 | > 100 | > 100 | > 100 |
| N#C/C(=C\c1ccc(Cl)cc1)c1nc2ccccc2c(=O)[nH]1 | > 100 | – | > 100 | > 100 | 60.6 | > 100 | > 100 | > 100 | > 100 | > 100 | > 100 | > 100 |
| COc1c(O)cc(/C=C/c2cc(O)cc3c2[C@@]2(C(=O)O3)c3c(O)cc(O)cc3OC2c2cccc(O)c2)cc1O (stereo not given in full) | > 100 | > 100 | > 100 | > 100 | > 100 | > 100 | > 100 | > 100 | > 100 | > 100 | 72 | > 100 |
| CCN(CC)c1ccc(/C=C/C2=NN(c3cccc(S(=O)(=O)O)c3)C3(C2)C(Cl)C(=O)N3c2nc3ccccc3s2)cc1 (stereo not given) | 30 | 22.8 | 24.1 | 8.26 | > 90.2 | 24.9 | 21.1 | 29.3 | 14.3 | 15.5 | 20.6 | 12.9 |
| NC(=S)N/N=C/c1cc(CN2CCOCC2)c(N)cn1 | > 100 | > 100 | > 100 | > 100 | > 100 | > 100 | > 100 | > 100 | > 100 | > 100 | > 100 | > 100 |
| CN(CCO)CC(=O)CC(O)(C(F)(F)F)C(F)(F)F | > 100 | 60.2 | > 100 | 90.3 | 58.7 | > 100 | > 100 | 95.3 | > 100 | > 100 | > 100 | > 100 |
| COc1ccc2oc(=N)c(C(N)=S)cc2c1 | 67.5 | – | 45.7 | > 100 | 58.6 | 32.9 | > 100 | 38.3 | 90.2 | > 100 | 34 | 99.3 |
| CC1CCCc2c(-c3ccc(Cl)cc3)nc(N)c(C#N)c21 (stereo not given) | 53.4 | 99.4 | > 100 | > 100 | > 100 | > 100 | > 100 | 67.6 | > 100 | > 100 | 40.2 | 35.6 |
| COc1ccc(CSCc2cc(OC)c(OC)c(OC)c2)cc1 | > 100 | > 100 | > 31.6 | > 100 | > 100 | > 31.6 | > 100 | > 100 | > 100 | > 100 | > 100 | > 100 |
| CCOC(=O)CNC(=O)C(CSC(=O)N(O)c1ccc(Br)cc1)NC(=O)CCC(N)C(=O)OCC (stereo not given) | > 50 | > 50 | > 50 | > 50 | > 50 | > 50 | > 50 | > 50 | – | > 50 | > 50 | > 50 |

Reference: PubChem BioAssay (NCI)
